Laboratory results as given in BindingDB's records for doi:10.1021/jm050205o (Abbott Laboratories, 2005).

Molecular target: T1, Glucocorticoid receptor (Homo sapiens, UniProt P04150)
T1 sequence (P04150 whole entry): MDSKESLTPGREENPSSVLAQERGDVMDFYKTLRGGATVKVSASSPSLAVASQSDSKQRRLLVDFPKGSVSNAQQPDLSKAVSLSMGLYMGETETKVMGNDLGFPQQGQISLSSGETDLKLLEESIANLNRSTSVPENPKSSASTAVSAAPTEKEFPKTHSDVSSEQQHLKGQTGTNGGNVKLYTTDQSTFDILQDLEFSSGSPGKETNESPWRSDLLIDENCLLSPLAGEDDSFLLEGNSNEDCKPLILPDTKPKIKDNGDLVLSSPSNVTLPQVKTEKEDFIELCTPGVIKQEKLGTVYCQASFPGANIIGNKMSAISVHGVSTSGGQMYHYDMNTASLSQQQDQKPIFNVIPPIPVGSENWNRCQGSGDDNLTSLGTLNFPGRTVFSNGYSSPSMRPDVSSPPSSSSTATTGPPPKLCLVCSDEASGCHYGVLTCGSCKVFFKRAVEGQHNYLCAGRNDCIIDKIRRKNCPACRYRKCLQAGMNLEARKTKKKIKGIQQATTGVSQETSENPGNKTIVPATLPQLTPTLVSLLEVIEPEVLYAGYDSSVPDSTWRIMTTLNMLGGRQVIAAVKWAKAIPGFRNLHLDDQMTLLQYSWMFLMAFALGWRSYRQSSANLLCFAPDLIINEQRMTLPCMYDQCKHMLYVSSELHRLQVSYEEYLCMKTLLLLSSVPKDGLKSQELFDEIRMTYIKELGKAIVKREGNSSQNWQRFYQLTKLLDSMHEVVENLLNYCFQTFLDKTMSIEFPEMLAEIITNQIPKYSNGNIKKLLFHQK
Experiment: GR Binding Assay and GRAF Assay
Details: pH 8; 4 °C

| IC50 [nM] | Structure (SMILES) |
| --- | --- |
| 330 | Cc1c(NS(C)(=O)=O)cccc1N(Cc1ccc(Oc2ccc(Br)c(OCC(=O)O)c2)cc1)Cc1ccc(F)cc1F [2-{2-bromo-5-[4-({[(2,4-difluorophenyl)methyl](3-methanesulfonamido-2-methylphenyl)amino}methyl)phenoxy]phenoxy}acetic acid] |
| 500 | Cc1c(NS(C)(=O)=O)cccc1N(Cc1ccc(Oc2ccc(Cl)c(OCC(=O)O)c2)cc1)Cc1ccc(F)cc1F [2-{2-chloro-5-[4-({[(2,4-difluorophenyl)methyl](3-methanesulfonamido-2-methylphenyl)amino}methyl)phenoxy]phenoxy}acetic acid] |
| 440 | Cc1c(NS(C)(=O)=O)cccc1N(Cc1ccc(Oc2ccc(F)c(OCC(=O)O)c2)cc1)Cc1ccc(F)cc1F [2-{5-[4-({[(2,4-difluorophenyl)methyl](3-methanesulfonamido-2-methylphenyl)amino}methyl)phenoxy]-2-fluorophenoxy}acetic acid] |

| Structure (SMILES) | IC50 [nM] |
| --- | --- |
| CC#C[C@]1(O)CC[C@H]2[C@@H]3CCC4=CC(=O)CC[C@]4(Cc4ccc(C)cc4)C3=CC[C@@]21C [(2R,10S,11S,14S,15S)-14-hydroxy-15-methyl-2-[(4-methylphenyl)methyl]-14-(prop-1-yn-1-yl)tetracyclo[8.7.0.0^{2,7}.0^{11,15}]heptadeca-1(17),6-dien-5-one] | 43 |
